Laboratory results: patent publication US9464084B2, “P2X7 modulators” (Janssen Pharmaceutica NV, priority 2013, dated 2016)

How the values were obtained:
rat P2X7 [1] = molecular target: T1, rat P2X7 (Rattus norvegicus (Rat), UniProt Q64663); assay: Ca2+ flux (FLIPR) in 1321N1 cells expressing recombinant rat P2X7 channel; format: cell-based; details: 250 μM BzATP;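 further: Calcium-4 dye fluorescence change read 180 s after agonist addition, following 30 min cell preincubation with test compound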
T1 sequence (Q64663 whole entry): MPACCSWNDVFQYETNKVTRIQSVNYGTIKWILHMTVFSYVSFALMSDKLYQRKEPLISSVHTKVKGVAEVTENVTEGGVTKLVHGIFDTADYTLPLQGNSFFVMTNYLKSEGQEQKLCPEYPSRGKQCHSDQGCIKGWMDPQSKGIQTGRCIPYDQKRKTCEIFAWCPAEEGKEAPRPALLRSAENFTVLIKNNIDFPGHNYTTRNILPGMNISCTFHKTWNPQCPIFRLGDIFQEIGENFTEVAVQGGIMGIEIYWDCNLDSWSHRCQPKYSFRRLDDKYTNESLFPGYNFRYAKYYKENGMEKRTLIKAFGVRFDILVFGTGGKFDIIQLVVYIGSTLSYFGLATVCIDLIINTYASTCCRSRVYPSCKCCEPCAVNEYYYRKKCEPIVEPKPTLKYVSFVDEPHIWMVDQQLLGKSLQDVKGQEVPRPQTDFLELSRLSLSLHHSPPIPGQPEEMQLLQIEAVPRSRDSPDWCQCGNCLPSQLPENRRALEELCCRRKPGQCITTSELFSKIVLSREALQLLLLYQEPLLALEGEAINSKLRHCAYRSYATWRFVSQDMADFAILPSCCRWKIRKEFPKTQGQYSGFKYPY
Experimental: Cells were seeded at a density of 25000 cells/well (96-well clear bottom black walled plates) in 100 μl volume/well. On the day of the experiment, cell plates were washed with assay buffer, containing (in mM): 130 NaCl, 2 KCl, 1 CaCl2, 1 MgCl2, 10 HEPES, 5 glucose; pH 7.40 and 300 mOs. After the wash, cells were loaded with the Calcium-4 dye (Molecular Device) and incubated in the dark for 60 minutes. Test compounds were prepared at 250× the test concentration in neat DMSO. Intermediate 96-well compound plates were prepared by transferring 1.2 μL of the compound into 300 μL of assay buffer. A further 3× dilution occurred when transferring 50 μL/well of the compound plate to 100 μL/well in the cell plate. Cells were incubated with test compounds and dye for 30 minutes. […] The fluorescence change was measured 180 seconds after adding the agonist.

P2X7 [2] = molecular target: T2, P2X7 (Homo sapiens (Human), UniProt Q99572); assay: Ca2+ flux (FLIPR) in 1321N1 cells expressing recombinant human P2X7 channel; format: cell-based; details: 250 μM BzATP;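 further: Calcium-4 dye-loaded cells exposed to compound for 30 min before agonist addition, fluorescence change read 180 s after agonist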
T2 sequence (Q99572 whole entry): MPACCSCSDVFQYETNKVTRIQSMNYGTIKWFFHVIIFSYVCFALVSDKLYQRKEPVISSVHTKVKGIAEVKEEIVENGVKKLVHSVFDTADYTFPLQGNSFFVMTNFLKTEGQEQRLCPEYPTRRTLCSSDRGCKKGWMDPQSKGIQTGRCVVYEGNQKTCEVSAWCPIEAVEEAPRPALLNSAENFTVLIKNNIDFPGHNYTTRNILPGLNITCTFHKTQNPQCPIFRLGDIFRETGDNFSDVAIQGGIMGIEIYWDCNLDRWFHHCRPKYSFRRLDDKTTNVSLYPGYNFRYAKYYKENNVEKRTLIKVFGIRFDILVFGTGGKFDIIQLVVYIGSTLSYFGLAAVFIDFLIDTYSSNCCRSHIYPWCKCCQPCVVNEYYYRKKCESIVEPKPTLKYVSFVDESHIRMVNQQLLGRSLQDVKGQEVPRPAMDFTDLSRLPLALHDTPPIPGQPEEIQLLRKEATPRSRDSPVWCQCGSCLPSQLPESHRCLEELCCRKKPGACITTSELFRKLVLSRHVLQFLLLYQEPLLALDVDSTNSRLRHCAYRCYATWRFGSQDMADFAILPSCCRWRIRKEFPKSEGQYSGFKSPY

P2X7 [3] = molecular target: T2, P2X7; assay: P2X7 antagonism in human whole blood (LPS + Bz-ATP induced IL-1β release, ELISA); format: cell-based; details: LPS 30 ng/ml, Bz-ATP 1 mM
Experimental: Human blood was collected using a blood donor program. PBMCs were isolated from blood using a Ficoll density gradient technique. Briefly, blood was laid on Ficoll solution and centrifuged at RT for 20 minutes at 2000 rpm. The buffy layer (between red blood cells and plasma) was carefully collected by aspiration, washed with PBS and centrifuged again at 1500 rpm for 15 minutes. The resulting cell pellet was washed and plated on 96 well-plates for experiments. For the Mouse/Human Whole Blood experiments, 150 μl of either mouse or human blood was platted on 96 well-plates. Lipopolysaccharide (LPS) (30 ng/ml) was added to each well and incubated for 1 hour. Test compounds were then added and incubated for 30 minutes. The P2X7 agonist, 2′(3′)-O-(4-benzoylbenzoyl) adenosine 5′ triphosphate (Bz-ATP) was then added at a final concentration of 0.5 mM (PBMC) or 1 mM (blood). Cells were incubated for an additional 1.5 hours. At that point, supernatant was collected and stored for IL-1β assay using manufacturer's protocol for enzyme-linked immunosorbent assay (ELISA). Data was expressed as percent control, where control is defined as the difference in IL-1β release in LPS+Bz-ATP samples and LPS only samples. Data was plotted as response (% control) versus concentration to generate IC50 values.

P2X7 [4] = molecular target: T2, P2X7; assay: Radioligand binding, tritiated A-804598, human P2X7-1321N1 cell membranes; details: 1 hour at 4° C.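 Further: ki obtained from the binding IC50 after correction for tracer concentration and tracer affinity.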
Experimental: (§1) On the day of the experiment, cell membrane preparations were made according to standard published methods. […] The assay was terminated by filtration (GF/B filters pre-soaked with 0.3% PEI) and washed with washing buffer (Tris-HCl 50 mM). The IC50 generated in the binding assay was corrected for tracer concentration and affinity of the tracer to derive at the affinity (Ki) of the test compounds.

P2X7 [5] = molecular target: T2, P2X7; assay: P2X7 antagonism in human PBMCs (LPS + Bz-ATP induced IL-1β release, ELISA); format: cell-based; details: LPS 30 ng/ml, Bz-ATP 0.5 mM; for PBMC 10 μM (% control): compound 10 μM;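 on all read-outs here: PBMCs from donor human blood, with a further 1.5 h incubation of the cells in the assay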
rat P2X7 [6] = molecular target: T1, rat P2X7; assay: Radioligand binding, tritiated A-804598, rat P2X7-1321N1 cell membranes; details: 1 hour at 4° C.
Experimental: as §1

Row | IC50 (rat P2X7 [1]) [nM] | IC50 (P2X7 [2]) [nM] | IC50 (P2X7 [3]) [nM] | Ki (P2X7 [4]) [nM] | PBMC 10 μM (% control) (P2X7 [5]) | Ki (rat P2X7 [6]) [nM] | PBMC 1 μM (% control) (P2X7 [5]; compound 1 μM) | Structure (SMILES)
1 | 51.5 | 2.9 | 316 | 50.1 | 8.3 | – | – | O=C(c1cccc(C(F)(F)F)c1Cl)N1CCc2c(nnn2-c2cc(F)ccn2)C1 [Example 131, (2-Chloro-3-(trifluoromethyl)phenyl)(1-(4-fluoropyridin-2-yl)-6,7-dihydro-1H-[1,2,3]triazolo[4,5-c]pyridin-5(4H)-yl)methanone]
2 | 5.4 | – | – | – | −6.0 | 5 | – | C[C@H]1c2nnn(-c3ccn(CCF)n3)c2CCN1C(=O)c1cccc(C(F)(F)F)c1Cl (single isomer, unassigned) [Example 172, (S*)-(2-Chloro-3-(trifluoromethyl)phenyl)(1-(1-(2-fluoroethyl)-1H-pyrazol-3-yl)-4-methyl-6,7-dihydro-1H-[1,2,3]triazolo[4,5-c]pyridin-5(4H)-yl)methanone]
3 | 195 | 11.5 | – | 81.3 | – | 741 | 7.0 | O=C(c1cccc(C(F)(F)F)c1Cl)N1CCc2c(-c3ccccc3)n[nH]c2C1 [Example 99, (2-Chloro-3-(trifluoromethyl)phenyl)(3-phenyl-4,5-dihydro-1H-pyrazolo[3,4-c]pyridin-6(7H)-yl)methanone]
4 | 10.2 | 8.9 | – | 20 | −5.7 | 3.2 | – | C[C@H]1c2nnn(-c3ccn(C)n3)c2CCN1C(=O)c1cccc(C(F)(F)F)c1Cl (single isomer, unassigned) [Example 170, (S*)-(2-Chloro-3-(trifluoromethyl)phenyl)(4-methyl-1-(1-methyl-1H-pyrazol-3-yl)-6,7-dihydro-1H-[1,2,3]triazolo[4,5-c]pyridin-5(4H)-yl)methanone]
5 | 78.9 | 3 | 158 | 7.9 | 6.5 | – | – | O=C(c1cccc(Cl)c1Cl)N1CCc2c(nnn2-c2ncccn2)C1 [Example 67, 5-[(2,3-Dichlorophenyl)carbonyl]-1-pyrimidin-2-yl-4,5,6,7-tetrahydro-1H-[1,2,3]triazolo[4,5-c]pyridine]
6 | 1330 | 7.5 | 501 | 12.6 | 10.6 | – | – | O=C(c1cccc(Cl)c1Cl)N1CCc2c(nnn2-c2cnccn2)C1 [Example 70, 5-[(2,3-Dichlorophenyl)carbonyl]-1-pyrazin-2-yl-4,5,6,7-tetrahydro-1H-[1,2,3]triazolo[4,5-c]pyridine]
7 | 6.6 | 5.4 | – | 14.1 | −3.7 | 3.1 | – | Cc1ccnc(-n2nnc3c2CCN(C(=O)c2cccc(C(F)(F)F)c2Cl)[C@@H]3C)n1 [Example 235, (4R)-(2-Chloro-3-(trifluoromethyl)phenyl)(4-methyl-1-(4-methylpyrimidin-2-yl)-6,7-dihydro-1H-[1,2,3]triazolo[4,5-c]pyridin-5(4H)-yl)methanone]
8 | 3720 | 217 | – | 631 | −9.5 | – | – | CCc1nc2c(n1-c1ccccc1)CCN(C(=O)c1cccc(Cl)c1Cl)C2 [Example 332, (2,3-dichlorophenyl)(2-ethyl-1-phenyl-6,7-dihydro-1H-imidazo[4,5-c]pyridin-5(4H)-yl)methanone]
9 | 10.2 | 7.2 | – | 20 | −0.4 | – | – | Cc1cccc(-n2nnc3c2CCN(C(=O)c2cccc(C(F)(F)F)c2Cl)[C@H]3C)n1 (single isomer, unassigned) [Example 227, (S*)-(2-chloro-3-(trifluoromethyl)phenyl)(4-methyl-1-(6-methylpyridin-2-yl)-6,7-dihydro-1H-[1,2,3]triazolo[4,5-c]pyridin-5(4H)-yl)methanone]

Row | Structure (SMILES) | IC50 (rat P2X7 [1]) [nM] | IC50 (P2X7 [2]) [nM] | IC50 (P2X7 [3]) [nM] | Ki (P2X7 [4]) [nM] | PBMC 10 μM (% control) (P2X7 [5]) | Ki (rat P2X7 [6]) [nM] | PBMC 1 μM (% control) (P2X7 [5]; compound 1 μM)
10 | O=C(c1ccc(F)c(Cl)c1Cl)N1CCc2c(nnn2-c2ccccn2)C1 [Example 130, (2,3-Dichloro-4-fluorophenyl)(1-(pyridin-2-yl)-6,7-dihydro-1H-[1,2,3]triazolo[4,5-c]pyridin-5(4H)-yl)methanone] | 154 | 3.6 | 501 | 50.1 | 3.7 | – | –
11 | O=C(c1cccc(C(F)(F)F)c1F)N1CCc2c(nnn2-c2ncccn2)C1 [Example 66, 5-{[2-Fluoro-3-(trifluoromethyl)phenyl]carbonyl}-1-pyrimidin-2-yl-4,5,6,7-tetrahydro-1H-[1,2,3]triazolo[4,5-c]pyridine] | 206 | 17.4 | 363 | 15.8 | 2.7 | – | –
